Measurements published in patent publication US4973675A, “Hybrid nitrosoureidoanthracyclines having antitumor activity” (University of Tennessee Research Center, priority 1989, dated 1990).
“Also recorded” adds a separate entry of the source. Where two headings read alike, the source gives them in different places.

Tests used:
[1] = test system: plasmid PC15 supercoiled DNA; test: DNA unwinding assay (interference with DNA topoisomerase I-mediated unwinding; drug-DNA intercalation); type: biochemical
[2] = test system: murine L1210 leukemia cells; test: Clonogenic assay with cultured murine L1210 leukemia cells, 1 h drug exposure (LD90); type: cell-based
Experimental: (§1) Culture and bioassay conditions were as described in Cancer Chemotherapy Pharmacology 20:277 (1987) "Comparative Effects of Adriamycin and DNA-nonbinding Analogues on DNA, RNA, and Protein Synthesis in Vitro", Israel et al., except that cell counts were determined by hemocytometer rather than by automated cell counting.
+Dose killing 90% of clonogens, 1hr. drug exposure.

[3] = Solubility in water or saline; type: physicochemical
Experimental: Accordingly, the compounds are formulated for administration by dissolving the compound in a pharmaceutically acceptable non-toxic carrier which contains a surfactant. The present inventors employ a formulation of 10% Cremaphor EL (a polyhydroxylated castor oil derivative) available from BASF Chemicals, 10% ethanol and 80% aqueous media (sterile water or saline solution). That quantity of the compound desired for establishing an effective dose is dissolved in a 1:1 mixture of Cremaphor EL and ethanol. Thereafter, sufficient aqueous medium is added with stirring to develop a final formulation containing 80% aqueous medium. This formulation is administered parenterally.

[4] = test system: human CEM leukemic lymphocytes; test: Growth inhibition of human CEM leukemic lymphocyte suspension cultures, 48 h continuous drug exposure (ID50); type: cell-based
Experimental: as §1

DNA topoisomerase II = test: Drug-stimulated topoisomerase II-mediated DNA cleavage assay (end-labeled PMC41 DNA); type: biochemical; settings: summary of biochemical studies
white blood cells = test: Hematotoxicity study in non-tumor-bearing animals, white blood cell count; type: in vivo, mice
Description: FIG. 3 is a graphic representation of white blood cell counts in mice following a single dose of 2-chloroethylnitrosoureidodaunorubicin.
Clinically and in laboratory animals, anthracycline antibiotics and chloroethylnitrosourea alkylating agents currently used in medical oncology are known to be strongly myelosuppressive, with the effects of the alkylating agents on suppression of bone marrow activity being particularly profound and long-lasting.

calf thymus DNA = test: Interstrand cross-link formation in isolated calf thymus DNA, ethidium bromide fluorescence assay; type: biochemical
Experimental: To further assess the alkylation potential of AD 312, the ability of this agent to form interstrand cross-links in isolated calf thymus DNA was examined using an ethidium bromide fluorescence assay. […] In one set of experiments, DNA was exposed briefly to AD 312 (30 minutes at 50° C.) before being reisolated by precipitation with ethanol. […] Such continuing reaction reflects the presence in the DNA of long-lived precursors of crosslinks similar to what has been found for the classical antitumor chloroethylnitrosoureas. […] It appears, therefore, that AD 312 induces DNA interstrand crosslinks via an initial adduct at O^6 -guanine.

## COc1cccc2c1C(=O)c1c(O)c3c(c(O)c1C2=O)C[C@@](O)(C(C)=O)C[C@@H]3O[C@H]1C[C@H](NC(=O)N(CCCl)N=O)[C@H](O)[C@H](C)O1 [AD 312, 2-chloroethylnitrosoureidodaunorubicin]
[1]; 0 = no intercalation, 9 = very strong intercalation
  relative strength of drug-DNA intercalation (arbitrary scale): 5
[1]; 4 concentrations, 125-fold range
  interference with topoisomerase I-mediated conversion of supercoiled DNA / intercalation: the ability of these compounds to intercalate, a prerequisite for topoisomerase II inhibition, is clearly established
[2]; L1210, 1 hour exposure
  clonogenic cell kill: most potent of the six agents compared
[2]; Mus musculus, L1210, 1 hr drug exposure, read-out: L1210 LD90 (dose killing 90% of clonogens)
  IC90: 260 nM
[3]; water or saline solution
  solubility: essentially insoluble in water or saline solution
[3]; water, of the order of, read-out: solubility in water
  solubility: < 25 µg/mL
[4]; CEM in vitro
  growth inhibitory activity: moderate to marked growth inhibitory activity; also recorded: somewhat less active
[4]; Homo sapiens, Lymphocyte, CEM, 48 hr continuous drug exposure (Table 2), read-out: ID50 (the source's name)
  IC50: 90 nM
DNA topoisomerase II
  DNA topoisomerase II-inhibitory and alkylating activity: clearly establish the DNA topoisomerase II-inhibitory activity and alkylating activity
White blood cells; dose 60.75 mg/kg
  acute toxicity: still not at an acute toxic level
  recovery of white blood cell count: rapid recovery again being achieved
White blood cells; dose 60.75 mg/kg, day 4
  reduction in white blood cell count: about 67%
White blood cells; single dose 40.5 mg/kg
  day of white blood cell nadir: 4 days
  full recovery of white blood cell count: ≤ 10 days
  lowering of white blood cell count: only a modest lowering of the white blood cell count
White blood cells; single dose 40.5 mg/kg, day 4, median 9×10^6 before drug
  white blood cell count nadir: 6×10^6 cells/ml
Calf thymus DNA; 10 mM, 4 hours at 50° C.
  interstrand crosslink formation: appreciable interstrand crosslinks
Calf thymus DNA; 30 min exposure at 50° C., DNA reisolated, further incubation at 50° C.
  continued crosslink formation after drug removal: crosslinks continued to form for several hours
Calf thymus DNA; enzyme added to AD 312-treated DNA
  effect of O^6-alkylguanine-DNA alkyltransferase on crosslink formation: can block the protracted second step in crosslink formation
